Laboratory results from patent publication US20120122870A1, “Treatment Of Ischemia-Reperfusion Injury” (MUSC FOUNDATION FOR RESEARCH DEVELOPMENT, priority 2009, published 2012).
Entries after “also recorded” stand apart in the source; their conditions may differ.

Legend:
[1] = system: hepatic warm IR in mice; experiment: Serum ALT and total bilirubin after hepatic warm IR; type: in vivo
Procedure: Liver warm ischemia was induced as described above. Blood was collected at 6 h after reperfusion, and serum alanine aminotransferase (ALT) activity and bilirubin were measured. Before ischemia, serum ALT levels were 22 U/L. At 6 h after reperfusion, ALT levels increased to ˜19,000 U/L in livers exposed to 1 h-ischemia (FIG. 12A). Pretreatment of the animals with ABC294640 decreased ALT levels after IR to ˜1,600 U/L, which reflects a >90% decrease compared to livers without ABC294640 treatment (FIG. 12A). […] Bilirubin accumulates in the blood when liver function is poor. Serum total bilirubin was 0.26 mg/dL in mice subjected to the sham operation. Bilirubin increased 3-fold 6 h after reperfusion (FIG. 12B). […] Clinical chemistry: Blood samples were collected from the vena cava at various times, and ALT and bilirubin were measured enzymatically using analytic kits from Pointe Scientific.

[2] = system: hepatic apoptosis after warm IR; experiment: TUNEL apoptosis in liver after hepatic warm IR; type: in vivo, mice; details: 1 h-ischemia plus 6 h-reperfusion
Procedure: ABC294640 prevents hepatic warm IR-induced cell death. SK increased after hepatic IR, therefore, we investigated whether ABC294640 protects against hepatic IR injury. […] Necrotic areas became panlobular after 1 h-ischemia plus 6 h of reperfusion (FIG. 10, middle). Necrotic area, quantified by computerized image analysis of 10 random fields per slide, accounted for 68% of the liver tissue (FIG. 11A). After ABC294640 treatment, necrosis was decreased to 7%, which represents an almost 90% attenuation as compared to the vehicle-treated livers (FIG. 11A). Hepatic apoptosis was evaluated by terminal deoxylnucleotidyl transferase-mediated deoxyuridine triphosphate biotin nick end labeling (TUNEL) (FIG. 11B). TUNEL-positive cells were rare in livers from sham-operated mice (0.13 cells/high power field (hpf)). TUNEL staining increased slightly to 2 cells/hpf after 1 h-ischemia plus 6 h-reperfusion (FIG. 11B). […] The TUNEL assay was performed to assess apoptosis using an In Situ Cell Death Detection Kit (Roche Diagnostics Corp., Indianapolis, Ind.). TUNEL-positive and negative cells were counted in 10 randomly selected fields using a 40× objective lens. Apoptosis was verified morphologically by identifying condensed and fragmented nuclei in 10 randomly selected fields in H+E slides ([…] et al. 1995).

[3] = system: mitochondrial depolarization in hepatocytes; experiment: Intravital multiphoton microscopy of mitochondrial depolarization (Rh123/PI) after hepatic IR; type: in vivo, mice; details: 1 h of ischemia and 2 h of reperfusion
Description: MPT onset is an important mechanism leading to cell death due to mitochondrial depolarization. […] There are two main advantages of multiphoton microscopy: 1) Red/infrared light penetrates deeper than visible light into solid tissues allowing visualization of tissue planes as deep as 1 mm into thick specimens. […] Therefore, the viability of thick living specimens is maintained much longer with multiphoton microscopy (Lemasters 2000). These advantages make multiphoton microscopy a powerful tool for studying mitochondrial function in live animals.
Following 1 h-ischemia and […], rhodamine-123 (Rh123), a cationic fluorophore that is taken up by polarized mitochondria, and propidium iodine (PI) that labels the nuclei of non-viable cells were infused and intravital multiphoton imaging of livers was performed. […]
Imaging of fluorescent probes Rh123, PI and calcein in vivo was achieved using a Zeiss LSM 510 laser scanning multiphoton microscope system using IR excitation of 800-900 nm from a Coherent Chameleon tunable Ti-Sapphire femtosecond pulsed laser, which excites both red- and green-fluorescing (rhodamine- and fluorescein-like) fluorophores. For calcein fluorescence, excitation of 720-nm was used.

[4] = system: lean liver transplantation in rats; experiment: Lean liver transplantation, serum ALT; type: in vivo; details: 60 μM in UW and Ringer's solutions plus 50 mg/kg i.p. to recipients; 6 h after LT; 8 h cold storage
Procedure: ABC294640 decreases graft injury after lean LT. To investigate whether ABC294640 protects liver grafts after LT, a pilot study was conducted. Lean livers were explanted and stored in UW solution for 8 h. ABC294640 was added to the UW solution and the lactated Ringer's post-storage solution at a concentration of 60 μM and injected into the recipients (50 mg/kg, i.p.) immediately after transplantation. […] Liver transplantation: Inbred male Lewis rats (200-250 g) were used to prevent immunological interference. Under ether anesthesia, heparin (200 IU) in 0.5 mL of lactated Ringer's solution was injected into the subhepatic vena cava. A 4-mm long stent prepared from polyethylene tubing (PE50) was inserted into the common bile duct and secured with a 6-0 suture. Livers were then flushed with 5 ml of ice-cold UW cold storage solution. Venous cuffs prepared from 14-gauge i.v. catheters were placed in the subhepatic vena cava and the portal vein. Liver explants were stored in UW solution (0-1° C.) for 4-24 h, rinsed with lactated Ringer's solution and then implanted (n=10 in each group). […] Clinical chemistry: Blood samples were collected from the vena cava at various times, and ALT and bilirubin were measured enzymatically using analytic kits from Pointe Scientific.

SMILES: O=C(NCc1ccncc1)C12CC3CC(C1)CC(c1ccc(Cl)cc1)(C3)C2 [ABC294640, 3-(4-chlorophenyl)-N-(pyridin-4-ylmethyl)adamantane-1-carboxamide]
- liver function / hepatic IR injury (in words) ([1]; 1 h-ischemia plus 6 h-reperfusion): markedly decreases hepatic IR injury; also recorded: improves liver function
- decrease of ALT compared to livers without treatment ([1]; 1 h-ischemia, 6 h after reperfusion): > 90%
- accumulation of serum total bilirubin ([1]; 6 h after reperfusion): almost completely reversed
- serum ALT levels after IR ([1]; pretreatment 50 mg/kg, 1 h-ischemia, 6 h after reperfusion): ~1,600 U/L
- increase of TUNEL-positive cells [2]: partially blocked
- mitochondrial depolarization after hepatic IR (in words) [3]: rare and largely prevented and prevents mitochondrial depolarization
- hepatocytes with mitochondrial depolarization ([3]; Rh123): 17%
- serum ALT after lean LT vs vehicle [4]: markedly attenuated; also recorded: decreases ALT release
